Experimental data published in ChEMBL document CHEMBL5352506, “The Zinc-Binding Group Effect: Lessons from Non-Hydroxamic Acid Vorinostat Analogs” (J Med Chem, 2023).

Columns and labels:
[1] = biological target: Histone deacetylase 4 (Homo sapiens, UniProt P56524); assay: Inhibition of human recombinant HDAC4 using ArgHisLysLys(Ac) as substrate by fluorescence based analysis
[2] = biological target: Histone deacetylase 1 (Homo sapiens, UniProt Q13547); assay: Inhibition of human recombinant HDAC1 using ArgHisLysLys(Ac) as substrate by fluorescence based analysis
Histone deacetylase 1, sequence (Q13547 whole entry): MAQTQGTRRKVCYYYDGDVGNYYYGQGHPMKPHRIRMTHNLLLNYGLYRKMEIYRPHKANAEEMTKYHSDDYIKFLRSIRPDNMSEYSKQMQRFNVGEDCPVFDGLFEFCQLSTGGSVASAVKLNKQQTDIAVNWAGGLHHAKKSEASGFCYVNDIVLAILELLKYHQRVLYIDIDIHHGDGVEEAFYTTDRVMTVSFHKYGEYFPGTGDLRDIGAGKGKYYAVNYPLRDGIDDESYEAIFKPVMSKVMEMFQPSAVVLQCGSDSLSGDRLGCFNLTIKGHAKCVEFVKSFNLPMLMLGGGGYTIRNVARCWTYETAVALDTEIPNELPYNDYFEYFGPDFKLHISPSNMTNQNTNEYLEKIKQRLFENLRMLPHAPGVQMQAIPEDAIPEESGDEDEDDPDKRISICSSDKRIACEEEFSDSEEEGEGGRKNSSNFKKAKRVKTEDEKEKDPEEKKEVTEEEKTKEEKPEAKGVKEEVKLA

[3] = biological target: Histone deacetylase 5 (Homo sapiens, UniProt Q9UQL6); assay: Inhibition of human recombinant HDAC5 using ArgHisLysLys(Ac) as substrate by fluorescence based analysis
Histone deacetylase 5, sequence (Q9UQL6 whole entry): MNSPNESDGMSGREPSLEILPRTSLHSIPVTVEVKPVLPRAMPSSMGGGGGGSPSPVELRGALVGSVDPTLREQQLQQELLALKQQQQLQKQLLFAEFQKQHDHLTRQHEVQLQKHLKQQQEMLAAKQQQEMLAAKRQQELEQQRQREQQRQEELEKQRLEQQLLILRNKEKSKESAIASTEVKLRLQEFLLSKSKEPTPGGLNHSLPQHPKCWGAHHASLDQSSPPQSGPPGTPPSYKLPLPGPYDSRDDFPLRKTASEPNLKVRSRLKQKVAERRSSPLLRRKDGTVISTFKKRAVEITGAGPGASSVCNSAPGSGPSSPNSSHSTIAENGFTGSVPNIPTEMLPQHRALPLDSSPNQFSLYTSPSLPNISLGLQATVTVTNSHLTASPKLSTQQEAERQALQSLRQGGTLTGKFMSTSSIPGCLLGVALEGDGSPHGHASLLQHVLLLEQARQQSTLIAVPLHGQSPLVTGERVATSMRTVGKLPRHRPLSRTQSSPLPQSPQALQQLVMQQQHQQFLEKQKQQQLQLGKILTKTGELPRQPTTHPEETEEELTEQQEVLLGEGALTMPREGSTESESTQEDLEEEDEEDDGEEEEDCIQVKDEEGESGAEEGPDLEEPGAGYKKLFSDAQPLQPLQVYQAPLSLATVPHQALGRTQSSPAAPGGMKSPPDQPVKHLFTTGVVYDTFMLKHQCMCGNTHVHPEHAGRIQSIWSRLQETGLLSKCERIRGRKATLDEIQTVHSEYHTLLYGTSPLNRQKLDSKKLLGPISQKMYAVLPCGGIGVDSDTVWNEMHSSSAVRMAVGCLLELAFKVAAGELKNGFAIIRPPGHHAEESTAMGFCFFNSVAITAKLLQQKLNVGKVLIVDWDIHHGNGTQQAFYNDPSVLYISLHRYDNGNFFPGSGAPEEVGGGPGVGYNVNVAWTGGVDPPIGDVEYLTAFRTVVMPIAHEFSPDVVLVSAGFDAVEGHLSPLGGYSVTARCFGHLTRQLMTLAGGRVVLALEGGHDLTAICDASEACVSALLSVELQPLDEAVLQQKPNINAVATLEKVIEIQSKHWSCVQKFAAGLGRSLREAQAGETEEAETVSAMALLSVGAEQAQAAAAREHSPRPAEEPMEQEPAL

[4] = biological target: Histone deacetylase 2 (Homo sapiens, UniProt Q92769); assay: Inhibition of human recombinant HDAC2 using ArgHisLysLys(Ac) as substrate by fluorescence based analysis
Histone deacetylase 2, sequence (Q92769 whole entry): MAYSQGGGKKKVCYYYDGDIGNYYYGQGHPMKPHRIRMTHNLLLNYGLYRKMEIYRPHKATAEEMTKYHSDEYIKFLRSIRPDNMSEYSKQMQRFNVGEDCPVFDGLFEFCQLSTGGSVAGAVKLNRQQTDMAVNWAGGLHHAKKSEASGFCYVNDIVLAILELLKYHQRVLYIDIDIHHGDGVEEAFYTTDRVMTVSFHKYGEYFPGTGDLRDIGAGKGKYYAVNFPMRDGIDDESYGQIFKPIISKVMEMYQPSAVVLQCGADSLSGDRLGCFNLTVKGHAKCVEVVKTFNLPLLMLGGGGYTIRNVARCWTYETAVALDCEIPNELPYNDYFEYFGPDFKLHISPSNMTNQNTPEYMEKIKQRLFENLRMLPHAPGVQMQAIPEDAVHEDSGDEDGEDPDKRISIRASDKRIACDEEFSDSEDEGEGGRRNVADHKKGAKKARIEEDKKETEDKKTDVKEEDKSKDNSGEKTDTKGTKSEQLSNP

[5] = biological target: T1, Histone deacetylase 11 (Homo sapiens, UniProt Q96DB2); assay: Inhibition of human recombinant HDAC11 using ArgHisLysLys(Ac) as substrate by fluorescence based analysis
T1 sequence (Q96DB2 whole entry): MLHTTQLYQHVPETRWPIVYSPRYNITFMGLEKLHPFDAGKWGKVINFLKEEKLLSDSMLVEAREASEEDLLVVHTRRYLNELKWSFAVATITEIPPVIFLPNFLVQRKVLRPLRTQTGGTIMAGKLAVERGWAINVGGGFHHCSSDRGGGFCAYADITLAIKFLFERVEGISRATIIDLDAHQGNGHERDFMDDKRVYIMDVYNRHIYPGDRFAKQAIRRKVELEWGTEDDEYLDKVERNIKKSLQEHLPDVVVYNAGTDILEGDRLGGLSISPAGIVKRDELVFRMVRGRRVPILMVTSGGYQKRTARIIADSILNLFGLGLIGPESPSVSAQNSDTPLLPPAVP

[6] = biological target: T2, Histone deacetylase 8 (Homo sapiens, UniProt Q9BY41); assay: Inhibition of human recombinant HDAC8 using ArgHisLysLys(Ac) as substrate by fluorescence based analysis
T2 sequence (Q9BY41 whole entry): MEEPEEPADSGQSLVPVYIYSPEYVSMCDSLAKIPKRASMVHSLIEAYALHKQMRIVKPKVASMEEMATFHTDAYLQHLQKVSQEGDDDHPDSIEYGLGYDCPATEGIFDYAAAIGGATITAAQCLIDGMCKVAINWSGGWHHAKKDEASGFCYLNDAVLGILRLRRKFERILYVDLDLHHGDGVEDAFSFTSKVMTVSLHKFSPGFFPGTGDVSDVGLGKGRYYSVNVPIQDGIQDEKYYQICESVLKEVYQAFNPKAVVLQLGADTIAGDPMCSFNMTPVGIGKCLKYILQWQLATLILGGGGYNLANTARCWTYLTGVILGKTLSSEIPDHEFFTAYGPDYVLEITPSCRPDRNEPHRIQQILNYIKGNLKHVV

[7] = biological target: T3, Polyamine deacetylase HDAC10 (Homo sapiens, UniProt Q969S8); assay: Inhibition of human recombinant HDAC10 using ArgHisLysLys(Ac) as substrate by fluorescence based analysis
T3 sequence (Q969S8 whole entry): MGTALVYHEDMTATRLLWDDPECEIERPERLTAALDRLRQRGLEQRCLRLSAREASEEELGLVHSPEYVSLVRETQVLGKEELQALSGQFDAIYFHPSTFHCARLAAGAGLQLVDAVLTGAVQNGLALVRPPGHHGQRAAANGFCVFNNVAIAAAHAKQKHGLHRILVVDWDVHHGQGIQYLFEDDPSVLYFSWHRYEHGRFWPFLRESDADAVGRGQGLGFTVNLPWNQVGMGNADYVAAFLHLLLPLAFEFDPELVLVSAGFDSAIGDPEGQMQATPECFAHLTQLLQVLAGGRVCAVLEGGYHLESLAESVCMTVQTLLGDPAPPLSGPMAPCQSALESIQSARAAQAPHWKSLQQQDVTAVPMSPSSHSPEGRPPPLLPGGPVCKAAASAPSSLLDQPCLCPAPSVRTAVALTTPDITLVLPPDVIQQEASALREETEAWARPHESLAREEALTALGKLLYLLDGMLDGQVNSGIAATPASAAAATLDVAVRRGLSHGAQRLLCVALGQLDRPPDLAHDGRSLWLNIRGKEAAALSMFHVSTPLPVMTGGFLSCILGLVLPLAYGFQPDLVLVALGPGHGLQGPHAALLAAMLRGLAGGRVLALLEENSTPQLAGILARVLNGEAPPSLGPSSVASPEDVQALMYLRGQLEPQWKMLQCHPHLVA

[8] = biological target: Histone deacetylase 3 (Homo sapiens, UniProt O15379); assay: Inhibition of human recombinant HDAC3 using ArgHisLysLys(Ac) as substrate by fluorescence based analysis
Histone deacetylase 3, sequence (O15379 whole entry): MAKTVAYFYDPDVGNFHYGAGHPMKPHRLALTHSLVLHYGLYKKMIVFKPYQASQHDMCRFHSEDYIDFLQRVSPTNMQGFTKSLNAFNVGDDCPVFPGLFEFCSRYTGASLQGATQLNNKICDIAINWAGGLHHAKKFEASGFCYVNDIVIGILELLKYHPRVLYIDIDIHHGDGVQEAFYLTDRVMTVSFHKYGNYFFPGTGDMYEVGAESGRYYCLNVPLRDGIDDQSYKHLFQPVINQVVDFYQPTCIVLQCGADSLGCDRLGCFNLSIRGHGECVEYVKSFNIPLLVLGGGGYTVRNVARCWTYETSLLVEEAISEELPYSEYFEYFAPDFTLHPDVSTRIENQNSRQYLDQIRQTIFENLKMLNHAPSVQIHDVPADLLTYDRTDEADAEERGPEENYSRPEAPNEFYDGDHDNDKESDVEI

Measured: IC50

Histone deacetylase 4, sequence (P56524 whole entry): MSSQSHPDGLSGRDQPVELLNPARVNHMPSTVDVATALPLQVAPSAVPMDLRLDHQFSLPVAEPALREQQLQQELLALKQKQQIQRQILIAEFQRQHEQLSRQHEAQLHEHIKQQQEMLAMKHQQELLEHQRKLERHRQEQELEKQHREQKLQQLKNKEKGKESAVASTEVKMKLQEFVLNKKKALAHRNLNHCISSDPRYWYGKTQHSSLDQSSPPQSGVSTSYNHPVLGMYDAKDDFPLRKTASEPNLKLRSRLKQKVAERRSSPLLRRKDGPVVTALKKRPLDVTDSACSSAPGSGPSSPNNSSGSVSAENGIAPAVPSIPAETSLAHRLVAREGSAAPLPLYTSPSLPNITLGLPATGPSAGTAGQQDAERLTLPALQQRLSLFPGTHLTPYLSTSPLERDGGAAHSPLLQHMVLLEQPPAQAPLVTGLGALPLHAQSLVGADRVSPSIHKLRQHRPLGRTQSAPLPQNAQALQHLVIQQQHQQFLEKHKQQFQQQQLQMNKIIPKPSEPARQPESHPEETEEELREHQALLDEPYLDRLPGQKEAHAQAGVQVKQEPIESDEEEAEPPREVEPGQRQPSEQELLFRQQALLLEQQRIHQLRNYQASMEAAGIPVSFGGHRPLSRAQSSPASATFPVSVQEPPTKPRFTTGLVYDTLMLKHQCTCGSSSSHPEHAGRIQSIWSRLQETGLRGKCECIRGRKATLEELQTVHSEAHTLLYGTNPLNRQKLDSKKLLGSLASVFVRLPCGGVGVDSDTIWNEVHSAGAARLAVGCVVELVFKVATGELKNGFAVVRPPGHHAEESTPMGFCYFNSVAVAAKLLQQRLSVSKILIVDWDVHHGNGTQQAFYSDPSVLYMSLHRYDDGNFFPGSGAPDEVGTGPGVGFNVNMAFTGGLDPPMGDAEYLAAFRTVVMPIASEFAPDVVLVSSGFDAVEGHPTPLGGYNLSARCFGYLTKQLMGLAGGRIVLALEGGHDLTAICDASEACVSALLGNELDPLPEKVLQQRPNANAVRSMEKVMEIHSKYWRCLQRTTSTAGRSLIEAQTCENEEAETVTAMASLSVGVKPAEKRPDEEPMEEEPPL

O=C(CCCCCC1CNC1=O)Nc1ccccc1 (configuration not stated)
> 1000 µM: all assays above

O=C(CCCCC[C@@H]1CN(O)C1=O)Nc1ccccc1
> 1000 µM: all assays above

Nc1ccccc1N1CC(CCCCCC(=O)Nc2ccccc2)C1=O (configuration not stated)
> 1000 µM: all assays above

O=C(CCCCC[C@H]1CN(O)C1=O)Nc1ccccc1
> 1000 µM: all assays above
